The conditions of data set [1]: human, in vivo; cited from earlier work.
The conditions of data set [2]: mice; cited from earlier work.
The conditions of data set [3]: rats; cited from earlier work.
The subject of data set [4] is novel coronavirus (SARS-CoV-2). Kind of data set: in vitro cell-virus assay. Format: cell-based.

Read-outs that look alike come from different tables or passages of the source.

Here are results for one compound from patent US11464765B2, “Use of an N-substituted pyridyl benzisoselazolone compound” (SHANGHAITECH UNIVERSITY, priority 2020, dated 2022).

As for `O=c1c2ccccc2[se]n1-c1ccccc1` [ebselen, Ebselen], in data set [1], the “clinical safety and tolerability” value was “safe and well tolerated”. In addition, the oral lethal dose in data set [2] is given as greater than 2150 mg/kg; in data set [3] it was greater than 4600 mg/kg. For the same compound, in data set [4] (FIG. 4), the “replication ability of SARS-CoV-2 in cells” value was “significantly inhibits the replication ability of SARS-CoV-2 in cells”. Further, in data set [4] (infected cells, FIG. 3), the “cytopathy caused by novel coronavirus infection” value is reported as “can prevent cytopathy caused by novel coronavirus infection”.
